Results reported in ChEMBL document CHEMBL1133898 (Bioorg Med Chem Lett, 2001).
pIC50, pKi: −log10 of the molar value.

What was measured:
[1] = target: T1, Sodium-dependent dopamine transporter (Rattus norvegicus, UniProt P23977); experiment: Displacement of [3H][…] from dopamine transporter (DAT) of rat striatal membrane
[2] = target: T2, Norepinephrine transporter (Rattus norvegicus, UniProt Q9WTR4); experiment: Displacement of [3H]NE from Norepinephrine transporter of rat brain
[3] = target: T1, Sodium-dependent dopamine transporter; experiment: Inhibition of high affinity uptake of [3H]DA using rat nerve endings obtained from brain regions enriched in DAT.
[4] = target: T3, Sodium-dependent serotonin transporter (Rattus norvegicus, UniProt P31652); experiment: Displacement of [3H]5-HT from serotonin transporter of rat brain
[5] = target: T2, Norepinephrine transporter; experiment: Evaluated for its ability to inhibit high affinity uptake of [3H]NE using rat nerve endings obtained from brain regions enriched in norepinephrine transporter (NET); assay type: functional
[6] = target: T3, Sodium-dependent serotonin transporter; experiment: Evaluated for its ability to inhibit high affinity uptake of [3H]-5-HT using rat nerve endings obtained from brain regions enriched in serotonin transporter (5HTT); assay type: functional
[7] = target: T2, Norepinephrine transporter; experiment: Evaluated for ability to inhibit high affinity uptake of [3H]-NE using rat nerve endings obtained from brain regions enriched in Norepinephrine transporter; assay type: functional
[8] = target: T3, Sodium-dependent serotonin transporter; experiment: Evaluated for ability to inhibit high affinity uptake of [3H]5-HT using rat nerve endings obtained from brain regions enriched in serotonin transporter (5HTT); assay type: functional
[9] = target: T3, Sodium-dependent serotonin transporter; experiment: Inhibitory concentration binding to Serotonin transporter using 0.5 nM […]
[10] = target: T1, Sodium-dependent dopamine transporter; experiment: Inhibitory concentration binding to dopamine transporter using 0.5 nM [3H]WIN-35428
[11] = target: T2, Norepinephrine transporter; experiment: (§1) Inhibitory concentration binding to Norepinephrine transporter using 0.2 nM […]; assay type: functional
[12] = target: T2, Norepinephrine transporter; experiment: as §1
[13] = target: T1, Sodium-dependent dopamine transporter; experiment: Inhibitory concentration binding to Dopamine transporter using 0.5 nM [3H]WIN-35428

T1 sequence (P23977 whole entry): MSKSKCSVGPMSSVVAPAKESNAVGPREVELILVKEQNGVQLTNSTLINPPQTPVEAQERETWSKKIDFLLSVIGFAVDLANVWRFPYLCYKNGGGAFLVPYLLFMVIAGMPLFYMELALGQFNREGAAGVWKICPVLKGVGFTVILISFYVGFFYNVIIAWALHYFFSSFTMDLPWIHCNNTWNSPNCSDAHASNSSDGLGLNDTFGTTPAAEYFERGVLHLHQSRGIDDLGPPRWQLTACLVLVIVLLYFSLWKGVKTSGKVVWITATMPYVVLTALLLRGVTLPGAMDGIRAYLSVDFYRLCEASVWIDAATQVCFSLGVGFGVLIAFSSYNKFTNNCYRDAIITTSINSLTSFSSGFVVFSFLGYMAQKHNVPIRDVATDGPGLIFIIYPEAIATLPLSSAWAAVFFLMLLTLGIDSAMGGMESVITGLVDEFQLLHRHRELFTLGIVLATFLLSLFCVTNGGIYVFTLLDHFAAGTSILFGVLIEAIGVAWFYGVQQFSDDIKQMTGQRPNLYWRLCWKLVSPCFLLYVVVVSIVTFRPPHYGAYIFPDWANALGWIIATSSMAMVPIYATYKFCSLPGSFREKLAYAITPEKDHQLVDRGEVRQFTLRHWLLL
T3 sequence (P31652 whole entry): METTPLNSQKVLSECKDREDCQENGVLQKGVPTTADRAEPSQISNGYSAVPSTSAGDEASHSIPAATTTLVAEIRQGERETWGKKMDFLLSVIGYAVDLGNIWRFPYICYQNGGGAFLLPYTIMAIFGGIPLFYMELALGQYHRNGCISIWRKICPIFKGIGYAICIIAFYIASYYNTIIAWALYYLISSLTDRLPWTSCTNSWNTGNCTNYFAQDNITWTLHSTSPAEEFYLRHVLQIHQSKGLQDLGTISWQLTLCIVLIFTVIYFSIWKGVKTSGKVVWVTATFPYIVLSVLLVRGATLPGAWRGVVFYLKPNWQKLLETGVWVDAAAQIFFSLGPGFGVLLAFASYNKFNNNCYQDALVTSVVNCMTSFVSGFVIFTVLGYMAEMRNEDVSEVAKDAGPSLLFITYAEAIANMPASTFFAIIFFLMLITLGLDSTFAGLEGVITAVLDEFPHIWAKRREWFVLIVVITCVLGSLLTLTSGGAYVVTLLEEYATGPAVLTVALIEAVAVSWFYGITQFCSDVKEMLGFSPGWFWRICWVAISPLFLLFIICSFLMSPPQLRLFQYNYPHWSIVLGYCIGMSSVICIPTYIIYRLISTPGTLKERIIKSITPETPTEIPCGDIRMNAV
T2 sequence (Q9WTR4 whole entry): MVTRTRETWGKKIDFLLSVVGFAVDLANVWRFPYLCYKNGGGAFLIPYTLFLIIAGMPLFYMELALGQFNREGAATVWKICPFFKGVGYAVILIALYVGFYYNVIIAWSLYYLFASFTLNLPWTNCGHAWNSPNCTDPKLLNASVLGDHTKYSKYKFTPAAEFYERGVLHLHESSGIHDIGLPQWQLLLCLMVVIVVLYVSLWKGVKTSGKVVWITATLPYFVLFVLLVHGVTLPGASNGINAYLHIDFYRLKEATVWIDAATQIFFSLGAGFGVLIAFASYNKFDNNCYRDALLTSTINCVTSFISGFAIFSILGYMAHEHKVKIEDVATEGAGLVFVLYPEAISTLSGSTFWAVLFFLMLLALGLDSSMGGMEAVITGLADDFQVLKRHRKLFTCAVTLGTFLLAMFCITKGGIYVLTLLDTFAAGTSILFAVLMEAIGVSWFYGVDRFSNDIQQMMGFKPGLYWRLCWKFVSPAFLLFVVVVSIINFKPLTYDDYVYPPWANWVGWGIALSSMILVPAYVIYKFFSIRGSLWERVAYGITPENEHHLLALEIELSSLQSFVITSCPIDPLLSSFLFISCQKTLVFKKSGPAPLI

| Structure (SMILES) | pKi [1] | pKi [2] | pKi [3] | pKi [4] | further results |
| --- | --- | --- | --- | --- | --- |
| CC(C)c1noc([C@H]2CN(C)CC[C@@H]2c2ccc(Cl)cc2)n1 | 6.31 | 6.11 | 6.41 | 5.53 | – |
| COc1ccc(-c2noc([C@H]3CN(C)CC[C@@H]3c3ccc(Cl)cc3)n2)cc1 | < 5.52 | < 5.52 | < 5.52 | < 5.52 | – |
| Cc1noc([C@@H]2CN(C)CC[C@H]2c2ccc(Cl)cc2)n1 | – | – | 6.02 | – | pIC50 [5]: < 6.00; pIC50 [6]: < 5.52 |
| COC(=O)[C@H]1CN(C)CC[C@@H]1c1ccc(Cl)cc1 | 6.50 | 6.60 | – | 5.07 | – |
| COC(=O)[C@@H]1CN(C)CC[C@H]1c1ccc(Cl)cc1 | 5.70 | 6.40 | 5.53 | 6.03 | – |
| CN1CC[C@@H](c2ccc(Cl)cc2)[C@H](c2nc(-c3ccccc3)no2)C1 | – | – | 5.77 | – | pIC50 [7]: < 5.52; pIC50 [8]: < 5.52 |
| CC(C)c1noc([C@@H]2CN(C)CC[C@H]2c2ccc(Cl)cc2)n1 | 5.54 | 5.57 | 5.44 | 5.91 | – |
| CN1CC[C@@H](c2ccc(Cl)cc2)[C@H](c2nc(-c3ccc(Br)cc3)no2)C1 | < 5.52 | < 5.52 | < 5.52 | < 5.52 | – |
| CN1CC[C@@H](c2ccc(Cl)cc2)[C@H](c2nc(-c3ccc4c(c3)OCO4)no2)C1 | < 5.52 | < 5.52 | < 5.52 | < 5.52 | – |
| COc1ccc(-c2noc([C@@H]3CN(C)CC[C@H]3c3ccc(Cl)cc3)n2)cc1 | < 5.52 | < 5.52 | < 5.52 | < 5.52 | – |
| CN1CC[C@H](c2ccc(Cl)cc2)[C@@H](c2nc(-c3ccc4c(c3)OCO4)no2)C1 | < 5.52 | < 5.52 | < 5.52 | < 5.52 | – |
| CN1CC[C@H](c2ccc(Cl)cc2)[C@@H](c2nc(-c3ccc(Br)cc3)no2)C1 | < 5.52 | < 5.52 | < 5.52 | < 5.52 | – |
| CN1CC[C@@H](c2ccc(Cl)cc2)[C@H](c2nc(-c3ccc(Cl)cc3)no2)C1 | < 5.52 | < 5.52 | < 5.52 | < 5.52 | – |
| CN1CC[C@H](c2ccc(Cl)cc2)[C@@H](c2nc(-c3ccc(Cl)cc3)no2)C1 | < 5.52 | < 5.52 | < 5.52 | < 5.52 | pIC50 [9]: 6.39; pIC50 [10]: 8.39; pIC50 [11]: 5.39 |
| CN1CC[C@H](c2ccc(Cl)cc2)[C@@H](c2nc(-c3ccccc3)no2)C1 | – | – | 6.30 | – | pIC50 [7]: < 5.00; pIC50 [8]: < 5.52 |
| Cc1noc([C@H]2CN(C)CC[C@@H]2c2ccc(Cl)cc2)n1 | 6.70 | 6.59 | 6.73 | 5.22 | pIC50 [9]: 5.59; pIC50 [12]: 6.44; pIC50 [13]: 8.39 |
